According to US11351168B1 (Celgene CAR LLC, priority 2008, dated 2022):

Test system: BTK signaling in Ramos cells
Assay: BTK Ramos cellular assay (phosphorylation of BTK substrate PLCγ2)
Assay type: cell-based, human
Settings: Homo sapiens, 1 hour compound, anti-IgM stimulation, read-out: BTK Inhibition (Ramos cellular)
Method: Compounds I-2, I-4, and I-7 were assayed in Ramos human Burkitt lymphoma cells. Ramos cells were grown in suspension in T225 flasks, spun down, resuspended in 50 ml serum-free media and incubated for 1 hour. Compound was added to Ramos cells in serum free media to a final concentration of 1, 0.1, 0.01, or 0.001 μM. Ramos cells were incubated with compound for 1 hour, washed again and resuspended in 100 ul serum-free media. Cells were then stimulated with 1 μg of goat F(ab′)2 Anti-Human IgM and incubated on ice for 10 minutes to activate B cell receptor signaling pathways. After 10 minutes, the cells were washed once with PBS and then lysed on ice with Invitrogen Cell Extraction buffer. 16 μg total protein from lysates were loaded on gel and blots were probed for phosphorylation of the BTK substrate PLCγ2.

IC50 [nM]	Compound
100 to 1000	C=CC(=O)Nc1cccc(Oc2nc(Nc3ccc(OC)nc3)ncc2C(=O)NC2CC2)c1 [Compound I-176, 4-(3-acrylamidophenoxy)-2-(6-methoxypyridin-3-ylamino)-pyrimidine-5-carboxylic acid cyclopropylamide]
< 10	C=CC(=O)Nc1cccc(Oc2nc(Nc3ccc(OC)nc3)ncc2C)c1 [Compound I-186, N-(3-(2-(6-methoxypyridin-3-ylamino)-5-methylpyrimidin-4-yloxy)phenyl)acrylamide]
< 10	C=CC(=O)Nc1cccc(Nc2nc(Nc3ccc(OCC4CCN(C)CC4)nc3)ncc2F)c1 [Compound I-78, N-(3-(5-fluoro-2-(6-((1-methylpiperidin-4-yl)methoxy)pyridin-3-ylamino)pyrimidin-4-ylamino)phenyl)acrylamide]
< 10	[2H]C([2H])([2H])Oc1ccc(Nc2ncc(F)c(Nc3cccc(NC(=O)C=C)c3)n2)cn1 [Compound I-95, N-(3-(5-fluoro-2-(6-(trideutereomethoxy)pyridine-3-ylamino)pyrimidin-4-ylamino)phenyl)acrylamide]
10 to 100	C=CC(=O)Nc1cccc(Nc2nc(Nc3cccc(OC)c3)ncc2OC)c1 [Compound I-158, N-(3-(5-methoxy-2-(3-methoxyphenylamino)pyrimidin-4-ylamino)phenyl)acrylamide]
< 10	C=CC(=O)Nc1cccc(Oc2nc(Nc3ccc(OC)nc3)ncc2C(C)=O)c1 [Compound I-188, N-{3-[5-Acetyl-2-(6-methoxy-pyridin-3-ylamino)-pyrimidin-4-yloxy]-phenyl}-acrylamide]
10 to 100	C=CC(=O)Nc1cccc(Nc2nc(Nc3ccc(OC)nc3)ncc2C(C)=O)c1 [Compound I-189, N-{3-[5-Acetyl-2-(6-methoxy-pyridin-3-ylamino)-pyrimidin-4-ylamino]-phenyl}-acrylamide]
< 10	C=CC(=O)Nc1cccc(Nc2nc(Nc3ccc(OCCOC)nc3)ncc2F)c1 [Compound I-103, N-(3-(5-fluoro-2-(6-(2-methoxyethoxy)pyridine-3-ylamino)pyrimidin-4-ylamino)phenyl)acrylamide]
10 to 100	C=CC(=O)Nc1cccc(Nc2nc(Nc3ccc(OCCO)nc3)ncc2C(C)=O)c1 [Compound I-121, N-(3-{5-Acetyl-2-[6-(2-hydroxy-ethoxy)-pyridin-3-ylamino]-pyrimidin-4-ylamino}-phenyl)-acrylamide]
< 10	C=CC(=O)Nc1cccc(Nc2nc(Nc3cccc(OC)c3)ncc2C(N)=O)c1 [Compound I-210, 4-(3-acrylamidophenylamino)-2-(3-methoxyphenylamino)pyrimidine-5-carboxamide]

Further lines, the compound ahead of its results:

Compound	IC50 [nM]
C=CC(=O)Nc1cccc(Nc2nc(Nc3ccc(OCc4ccccn4)c(Cl)c3)ncc2F)c1 [Compound I-86, N-(3-(2-(3-chloro-4-(pyridin-2-ylmethoxy)phenylamino)-5-fluoropyrimidin-4-ylamino)phenyl)acrylamide]	< 10
C=CC(=O)Nc1cccc(Nc2nc(Nc3ccc4c(c3)N(S(C)(=O)=O)CCO4)ncc2F)c1 [Compound I-140, N-(3-(2-(4-methylsulfonyl-2,3-dihydrobenzo[1,4]oxazin-6-yl)amino-5-fluoropyrimidin-4-ylamino)phenyl)acrylamide]	10 to 100
C=CC(=O)Nc1cccc(Nc2ncc(F)c(Nc3cccc(C)c3)n2)c1 [Compound I-3, N-(3-(5-fluoro-4-(m-tolylamino)pyrimidin-2-ylamino)phenyl) acrylamide]	10 to 100
C=CC(=O)Nc1cccc(Nc2nc(Nc3ccc4c(cnn4C(=O)OC(C)(C)C)c3)ncc2F)c1 [Compound I-151]	< 10
C=CC(=O)N1CCC[C@@H](Oc2nc(Nc3ccc(OC)nc3)ncc2F)C1 [Compound I-180, (R)-1-(3-(5-fluoro-2-(6-methoxypyridin-3-ylamino)pyrimidin-4-yloxy)piperidin-1-yl)prop-2-en-1-one]	100 to 1000
C=CC(=O)Nc1cccc(Nc2nc(Nc3cccc(OCCCNC(=O)OC(C)(C)C)c3)ncc2C)c1 [Compound I-45, tert-butyl 3-(3-(4-(3-acrylamidophenylamino)-5-methylpyrimidin-2-ylamino)phenoxy)propylcarbamate]	< 10
C=CC(=O)Nc1cccc(Nc2nc(Nc3ccc(Cl)c(OCC(C)(C)O)c3)ncc2F)c1 [Compound I-249, N-(3-(2-(4-chloro-3-(2-hydroxy-2-methylpropoxy)phenylamino)-5-fluoropyrimidin-4-ylamino)phenyl)acrylamide]	< 10
C=CC(=O)Nc1ccc(Nc2nc(Nc3ccccc3)ncc2C)cc1 [Compound I-39, N-(4-(5-methyl-2-(phenylamino)pyrimidin-4-ylamino)phenyl) acrylamide]	10 to 100
C=CC(=O)N(C)Cc1cccc(Nc2nc(Nc3ccccc3)ncc2C)c1 [Compound I-220, N-methyl-N-(3-(5-methyl-2-(phenylamino)pyrimidin-4-ylamino)benzyl)acrylamide]	10 to 100
C=CC(=O)Nc1cccc(Nc2nc(Nc3cc(OC)c(OC)c(OC)c3)ncc2F)c1 [Compound I-133, 4-(3-acrylamidophenylamino)-5-fluoro-2-(3,4,5-trimethoxyphenylamino)-pyrimidine]	10 to 100
C=CC(=O)N1CCOc2ccc(Nc3nc(Nc4ccc(OCCOC)cc4)ncc3C(C)=O)cc21 [Compound I-150, 1-(6-{5-Acetyl-2-[4-(2-methoxy-ethoxy)-phenylamino]-pyrimidin-4-ylamino}-2,3-dihydro-benzo[1,4]oxazin-4-yl)-propenone]	10 to 100
C=CC(=O)Nc1cccc(Nc2nc(Nc3ccc(OCCCNC(=O)OC(C)(C)C)cc3)ncc2F)c1 [Compound I-198, tert-butyl 3-(4-(4-(3-acrylamidophenylamino)-5-fluoropyrimidin-2-ylamino)phenoxy)propylcarbamate]	< 10
C=CC(=O)Nc1cccc(Nc2nc(Nc3ccc(O[C@@H]4CCOC4)c(F)c3)ncc2F)c1 [Compound I-316, (R)—N-(3-(5-fluoro-2-(3-fluoro-4-(tetrahydrofuran-3-yloxy)phenylamino)pyrimidin-4-ylamino)phenyl)acrylamide]	< 10
C=CC(=O)N1CCC[C@@H](Oc2nc(Nc3cccc(OC)c3)ncc2F)C1 [Compound I-190, (R)-1-(3-(5-fluoro-2-(3-methoxyphenylamino)pyrimidin-4-yloxy)piperidin-1-yl)prop-2-en-1-one]	10 to 100
C=CC(=O)Nc1cccc(Oc2nc(Nc3cccc(OC)c3)ncc2C(N)=O)c1 [Compound I-178, 4-(3-acrylamidophenoxy)-2-(3-methoxyphenylamino)pyrimidine-5-carboxylic acid amide]	10 to 100
C=CC(=O)Nc1cccc(Nc2nc(Nc3cccc(OCCCN4CCOCC4)c3)ncc2F)c1 [Compound I-208, N-(3-(5-fluoro-2-(3-(3-morpholinopropoxy)phenylamino)pyrimidin-4-ylamino)phenyl)acrylamide]	10 to 100
C=CC(=O)Nc1cccc(Nc2nc(Nc3cccc(OCCN(C)C)c3)ncc2F)c1 [Compound I-233, N-(3-(2-(3-(2-(dimethylamino)ethoxy)phenylamino)-5-fluoropyrimidin-4-ylamino)phenyl)acrylamide]	< 10
C=CC(=O)Nc1cccc(Nc2nc(Nc3ccccc3)ncc2C(F)(F)F)c1 [Compound I-245, N-(3-(5-trifluoromethyl-2-(phenylamino)pyrimidin-4-ylamino)phenyl)acrylamide]	< 10
